Values joined by “and” are separate entries in the source; they are usually repeats but may differ in a detail not shown here. Equal values may be shown once. Residues, ends and D or L forms follow the SMILES beside them. *: point of attachment. X1 = O=C(O)CN1CCN(CC(=O)O)CCN(C(CCC(=O)NCCN2C(=O)CC(*)C2=O)C(=O)O)CC1
What was measured:
[1] = In vitro plasma stability; assay type: in vitro ADME, human; conditions: 37°C, 1 hour time point, RP-HPLC, means from three experiments
Description: The stability of peptides in blood is often limited as they are rapidly cleaved by catalytic enzymes found in tissue and blood, resulting in a short biological half-life. […] To verify whether the FnBPA5 peptide can be used for in vivo applications, we next performed a plasma stability test. The metabolic stability of the peptide radiotracer ^111In-FnBPA5 was tested in vitro by incubating the radiolabeled FnBPA5 at 37°C with human blood plasma, or water as control. The unbound peptide fraction was separated from the plasma proteins at different time points (0, 1, 24, 48, and 72 h) and was analyzed by reversed-phase high-pressure liquid chromatography (RP-HPLC).
After that, the samples were filtrated using a Thomson Single StEP Filter vial 0.45 μm PVDF (Thomson Instrument Company, Oceanside, USA) and the supernatant was analyzed by reversed-phase HPLC (Varian Prostar HPLC System, SpectraLab Scientific Inc., Canada) using a D-Bio Discovery Wide Pore C18 column (25 cm × 4.6 mm; 5 μm).

[2] = Biodistribution in PC-3 tumor grafted mice; assay type: in vivo, mouse; conditions: female, CD1 nude, mouse, in vivo, iv, total radioactivity; 1 h p.i.; PC-3 grafted mice, i.v. 150 kBq (2.4 nmol, 100 µL PBS), γ counter, mean ± SD, n = 4; read-out: Biodistribution, Kidneys
Description: (§1) Experiments were performed 3–4 weeks after inoculation.
(§2) For the biodistribution experiments, PC-3 tumor grafted mice were injected into the tail vein with 150 kBq ^111In-FnBPA5 or ^111In-scrambled FnBPA5 (2.4 nmol, 100 µL PBS). For each peptide, groups of four mice were sacrificed at 1, 4, 24, and 96 h post injection. Blocking experiment (n = 4) was performed by injection of an excess of peptide (100 µg, 24 nmol in 100 µL PBS) directly before the administration of the corresponding radiolabeled peptide. The organs were collected, weighed and counted for activity with a γ counter (Packard Cobra II Auto, Gamma, PerkinElmer AG, Schwerzenbach, Switzerland) 4 h p.i. The results were expressed as a percentage of injected activity per gram of tissue (% IA per g tissue). The Student's t test analyses were considered as type 3 (two sample unequal variance) and statistical significance was assumed for p-values smaller than 0.05.

[3] = tested on: PC-3-bearing mice; test: Biodistribution in PC-3 tumor grafted mice; assay type: in vivo, mouse; conditions: PC-3 grafted mice, i.v. 150 kBq (2.4 nmol, 100 µL PBS), γ counter, mean ± SD, n = 4
Description: as §1, §2

[4] = tested on: PC-3-bearing mice; test: In vivo blocking experiment in PC-3 tumor grafted mice; set-up: species or system mouse; conditions: n = 4
Description: as §2

[5] = tested on: PC-3-bearing mice; test: SPECT/CT imaging of PC-3-bearing mice; assay type: in vivo, mouse
Description: Thirty-three days from the inoculation of the tumor cells, the mice were intravenously injected with ~15 MBq ^111In-FnBPA5 resp. ^111In-scrambled FnBPA5-NODAGA (2.4 nmol, 100 µL PBS) into the tail vein. […] The images were reconstituted and processed with InVivoScope® software (Bioscan Inc., Washington DC, USA).

[6] = molecular target: fibronectin N-terminal fragments (Homo sapiens) (UniProt P02751); conditions: cited from earlier work
Sequence of fibronectin N-terminal fragments (Homo sapiens) (P02751 50-273): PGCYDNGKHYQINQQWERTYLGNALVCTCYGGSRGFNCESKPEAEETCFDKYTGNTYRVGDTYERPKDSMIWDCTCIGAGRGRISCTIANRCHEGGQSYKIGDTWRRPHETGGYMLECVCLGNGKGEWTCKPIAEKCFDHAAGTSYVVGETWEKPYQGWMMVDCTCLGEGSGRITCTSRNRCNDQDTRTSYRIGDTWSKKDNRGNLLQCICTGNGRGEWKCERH

[7] = 4h p.i. blocking: corresponding unlabeled peptide (24 nmol) i.v. directly before the radiolabeled peptide, PC-3 grafted mice, mean ± SD

Sequence of FnBPA5 (P14738 636-672): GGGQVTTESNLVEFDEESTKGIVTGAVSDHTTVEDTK

Compound: CC[C@H](C)[C@H](NC(=O)[C@@H](NC(=O)[C@H](CCC(=O)O)NC(=O)CNC(=O)[C@H](Cc1ccccc1)NC(=O)[C@H](CC(=O)O)NC(=O)[C@@H](NC(=O)[C@H](CCCCN)NC(=O)[C@@H](NC(=O)CNC(=O)[C@@H](NC(=O)[C@H](CC(C)C)NC(=O)[C@H](CC(=O)O)NC(=O)[C@H](CCC(=O)O)NC(=O)[C@H](CCC(N)=O)NC(=O)[C@H](CCC(=O)O)NC(=O)[C@H](CO)NC(=O)CNC(=O)[C@@H](N)CSC1CC(=O)N(CCNC(=O)CCC(C(=O)O)N2CCN(CC(=O)O)CCN(CC(=O)O)CC2)C1=O)[C@@H](C)O)[C@@H](C)O)C(C)C)[C@@H](C)O)C(=O)N[C@H](C(=O)N[C@H](C(=O)N[C@@H](CC(N)=O)C(=O)N[C@@H](CCC(=O)O)C(=O)N[C@@H](C)C(=O)N[C@H](C(=O)N[C@@H](CCC(=O)O)C(=O)N[C@H](C(=O)N[C@H](C(=O)N[C@H](C(=O)N[C@@H](CO)C(=O)NCC(=O)N[C@@H](CO)C(=O)N[C@H](C(=O)N[C@@H](Cc1c[nH]cn1)C(=O)NCC(=O)N[C@H](C(=O)N[C@@H](CCCCN)C(=O)N[C@H](C(=O)O)C(C)C)[C@@H](C)O)[C@@H](C)O)[C@@H](C)O)C(C)C)[C@@H](C)O)[C@@H](C)O)C(C)C)C(C)C (stereo partly shown) [111In-scrambled FnBPA5, metal not drawn] (H-C(X1)GSEQEDLTGTKVDFGETIVVNEATETVTSGSTHGTKV-OH; N-terminus and C-terminus assumed)
- stability in human blood plasma [1]: high stability
- tissue uptake at 1 h [2]: 163 ± 18 %ID/g
- Biodistribution, Blood ([3]; 1 h p.i.): 0.26 ± 0.064 IA% / g
- Biodistribution, Bone ([3]; 1 h p.i.): 0.15 ± 0.035 IA% / g
- Biodistribution, Heart ([3]; 1 h p.i.): 0.12 ± 0.03 IA% / g
- Biodistribution, Intestines ([3]; 1 h p.i.): 0.09 ± 0.01 IA% / g
- Biodistribution, Kidneys ([3]; 1 h p.i.): 163.70 ± 18.90 IA% / g
- Biodistribution, Liver ([3]; 1 h p.i.): 0.10 ± 0.02 IA% / g
- Biodistribution, Lung ([3]; 1 h p.i.): 0.19 ± 0.03 IA% / g
- Biodistribution, Muscle ([3]; 1 h p.i.): 0.09 ± 0.025 IA% / g
- Biodistribution, Pancreas ([3]; 1 h p.i.): 0.78 ± 0.295 IA% / g
- Biodistribution, Spleen ([3]; 1 h p.i.): 0.21 ± 0.039 IA% / g
- Biodistribution, Stomach ([3]; 1 h p.i.): 0.12 ± 0.013 IA% / g
- Biodistribution, Tumor ([3]; 1 h p.i.): 0.27 ± 0.08 IA% / g
- Biodistribution, Blood ([3]; 4 h p.i.): 0.07 ± 0.008 IA% / g and 0.07 ± 0.01 IA% / g
- Biodistribution, Bone ([3]; 4 h p.i.): 0.10 ± 0.01 IA% / g
- Biodistribution, Heart ([3]; 4 h p.i.): 0.06 ± 0.006 IA% / g
- Biodistribution, Intestines ([3]; 4 h p.i.): 0.04 ± 0.012 IA% / g and 0.04 ± 0.01 IA% / g
- Biodistribution, Kidneys ([3]; 4 h p.i.): 151.43 ± 9.056 IA% / g and 151.43 ± 9.06 IA% / g
- Biodistribution, Liver ([3]; 4 h p.i.): 0.08 ± 0.026 IA% / g and 0.08 ± 0.03 IA% / g
- Biodistribution, Lung ([3]; 4 h p.i.): 0.08 ± 0.005 IA% / g and 0.08 ± 0.01 IA% / g
- Biodistribution, Muscle ([3]; 4 h p.i.): 0.04 ± 0.019 IA% / g and 0.04 ± 0.02 IA% / g
- Biodistribution, Pancreas ([3]; 4 h p.i.): 0.64 ± 0.549 IA% / g and 0.64 ± 0.55 IA% / g
- Biodistribution, Spleen ([3]; 4 h p.i.): 0.13 ± 0.036 IA% / g and 0.13 ± 0.03 IA% / g
- Biodistribution, Stomach ([3]; 4 h p.i.): 0.06 ± 0.006 IA% / g
- Biodistribution, Tumor ([3]; 4 h p.i.): 0.14 ± 0.02 IA% / g
- Biodistribution, Blood ([3]; 24 h p.i.): 0.04 ± 0.005 IA% / g
- Biodistribution, Bone ([3]; 24 h p.i.): 0.09 ± 0.021 IA% / g
- Biodistribution, Heart ([3]; 24 h p.i.): 0.04 ± 0.005 IA% / g
- Biodistribution, Intestines ([3]; 24 h p.i.): 0.03 ± 0.00 IA% / g
- Biodistribution, Kidneys ([3]; 24 h p.i.): 104.62 ± 9.412 IA% / g
- Biodistribution, Liver ([3]; 24 h p.i.): 0.07 ± 0.010 IA% / g
- Biodistribution, Lung ([3]; 24 h p.i.): 0.05 ± 0.006 IA% / g
- Biodistribution, Muscle ([3]; 24 h p.i.): 0.08 ± 0.026 IA% / g
- Biodistribution, Pancreas ([3]; 24 h p.i.): 0.21 ± 0.162 IA% / g
- Biodistribution, Spleen ([3]; 24 h p.i.): 0.14 ± 0.048 IA% / g
- Biodistribution, Stomach ([3]; 24 h p.i.): 0.04 ± 0.017 IA% / g
- Biodistribution, Tumor ([3]; 24 h p.i.): 0.09 ± 0.01 IA% / g
- Biodistribution, Blood ([3]; 96 h p.i.): 0.02 ± 0.005 IA% / g
- Biodistribution, Bone ([3]; 96 h p.i.): 0.13 ± 0.036 IA% / g
- Biodistribution, Heart ([3]; 96 h p.i.): 0.04 ± 0.005 IA% / g
- Biodistribution, Intestines ([3]; 96 h p.i.): 0.02 ± 0.010 IA% / g
- Biodistribution, Kidneys ([3]; 96 h p.i.): 23.63 ± 9.883 IA% / g
- Biodistribution, Liver ([3]; 96 h p.i.): 0.05 ± 0.005 IA% / g
- Biodistribution, Lung ([3]; 96 h p.i.): 0.04 ± 0.014 IA% / g
- Biodistribution, Muscle ([3]; 96 h p.i.): 0.04 ± 0.013 IA% / g
- Biodistribution, Pancreas ([3]; 96 h p.i.): 0.06 ± 0.016 IA% / g
- Biodistribution, Spleen ([3]; 96 h p.i.): 0.10 ± 0.029 IA% / g
- Biodistribution, Stomach ([3]; 96 h p.i.): 0.04 ± 0.029 IA% / g
- Biodistribution, Tumor ([3]; 96 h p.i.): 0.16 ± 0.08 IA% / g
- effect of pre-injection of unlabeled peptide on accumulation ([4]; 24 nmol unlabeled peptide pre-injected, 4 h p.i., Student's t test): no significant differences
- Biodistribution with blocking, Blood [4, 7]: 0.07 ± 0.01 IA% / g
- Biodistribution with blocking, Intestines [4, 7]: 0.07 ± 0.05 IA% / g
- Biodistribution with blocking, Kidneys [4, 7]: 128.81 ± 17.44 IA% / g
- Biodistribution with blocking, Liver [4, 7]: 0.08 ± 0.01 IA% / g
- Biodistribution with blocking, Lung [4, 7]: 0.10 ±0.03 IA% / g
- Biodistribution with blocking, Muscle [4, 7]: 0.04 ± 0.00 IA% / g
- Biodistribution with blocking, Pancreas [4, 7]: 1.41 ±1.25 IA% / g
- Biodistribution with blocking, Spleen [4, 7]: 0.18 ± 0.03 IA% / g
- Biodistribution with blocking, Stomach [4, 7]: 0.08 ± 0.04 IA% / g
- Biodistribution with blocking, Tumor [4, 7]: 0.14 ± 0.04 IA% / g
- SPECT/CT distribution ([5]; ~15 MBq (2.4 nmol, 100 µL PBS) i.v., up to 96 h p.i.): mainly accumulated in the kidneys
- SPECT/CT distribution after kidney removal ([5]; ~15 MBq i.v., 96 h p.i., post mortem, kidneys removed): no uptake was visible

Compound: FnBPA5 (from UniProt P14738)
- Kd [6]: 44.2 nM

Source: article PMC5702617, “Novel peptide probes to assess the tensional state of fibronectin fibers in cancer” (Nature Communications, 2017)
